The source of these data is patent publication US9345705B2, “Compositions and methods for treating cancer” (Merck Sharp & Dohme Corp., priority 2011, dated 2016).

Where two headings read alike, the source gives them in different places.

For assay [1], the system named is A2058 melanoma cancer cell line. Briefly: Cell proliferation by ATP vialight, 9-point titrations with fixed concentrations of the complementary drug. The format is cell-based, human. The note with it: for EC50: Homo sapiens, 72 hours. As for the experimental part: To determine the ability of each drug to potentiate the activity of the other, Applicants performed 9-point titrations of each in the added presence of increasing, but fixed, concentrations of the complimentary drug (FIGS. 1A and 1B). Analysis of cell proliferation was determined after 72 hours (3 days) incubation with either DMSO (as control) or the indicated concentrations of MK-1775 and MK-8776 by ATP vialight (Promega). […] EC50 concentrations were calculated (GraphPad Prism, GraphPad Software, San Diego, Calif.).
Inhibition of WEE1 and CHK1 lead to aberrant CDK1 and/or CDK2 activity, and without wishing to be bound by any theory, this is thought to underlie the potential of either target for having deleterious effects on actively dividing tumor cells. Because of the possible overlap in the MK-1775 and MK-8776 mechanisms of action, Applicants carried out […] synergy experiments.

Assay [2] deals with A2058 melanoma, HT-29 colorectal and LoVo colorectal cancer cells. Briefly: Growth assay (ATP ViaLight) at concentrations with negligible single-agent effect. The format is cell-based, human.
Procedure: A2058 melanoma cancer cells were treated with 125 nM MK-1775, 150 nM MK-8776, or both. HT-29 colorectal cancer cells were treated with 125 nM MK-1775, 300 nM MK-8776, or both. LoVo colorectal cancer cells were treated with 40 nM MK-1775, 75 nM MK-8776, or both. FIG. 2A depicts cell proliferation and was scored at either 48 or 72 hours as the percentage of ATP ViaLight® (ViaLight® Assay, Lonza, Basel, Switzerland) of treated samples relative to DMSO treated controls.
The subject of assay [3] is LoVo cells. Briefly: DNA damage (γH2AX) by flow cytometry in LoVo cells. The format is cell-based, human. Background: In flow cytometry, cells or beads pass a laser one at a time.
Procedure: A2058 melanoma cancer cells were treated with 125 nM MK-1775, 150 nM MK-8776, or both. HT-29 colorectal cancer cells were treated with 125 nM MK-1775, 300 nM MK-8776, or both. LoVo colorectal cancer cells were treated with 40 nM MK-1775, 75 nM MK-8776, or both. […] FIG. 2B depicts DNA damage and was scored at either 24 or 48 hours as the percentage of cells positive for the DNA damage marker γH2AX (histone H2AX phosphorylated at serine 139) determined by flow cytometry.
The test system of assay [4] is LoVo xenograft tumors. Briefly: Pharmacodynamic DNA damage analysis (Western blot pCHK1 S345, IHC γH2AX) in xenograft tumors. The format is in vivo, CD-1 Nu/Nu female mice. To be noted: 2 days BID, 60 mpk each agent.
Procedure: CD-1 Nu/Nu female mice aged 5-6 weeks (Charles River Laboratories) were inoculated with 5×10^6 LoVo cells in 100 uL (1:1 Matrigel:PBS) subcutaneously (S.C.) into the right flank. […] Three animals from each group were sacrificed via carbon dioxide inhalation at 2 hours, 24 hours, or 48 hours after the 4th and final dose of the 2 day BID schedule. Tumors were resected, split roughly in half, and stored in 10% formalin for immunohistochemistry (IHC) or at −80° C. for Western blot analysis.
The subject of assay [5] is LoVo xenograft tumors. Put plainly: Anti-tumor efficacy in xenograft model of human colorectal cancer. It is filed as in vivo, CD-1 Nu/Nu female mice. To be noted: study day 18, 3 cycles of 2 day BID dosing, 50 mpk, single agent plus vehicle. As for the experimental part:
The anti-tumor efficacy of this combination was assessed in a xenograft model of human colorectal cancer. CD-1 Nu/Nu female mice aged 5-6 weeks (Charles River Laboratories) were inoculated with 5×10^6 LoVo cells in 100 uL (1:1 Matrigel:PBS) S.C. into the right flank. […] Tumor volume and body weights were recorded bi-weekly.
For orientation: In xenograft studies the graft and the host belong to different species.

For the compound `C=CCn1c(=O)c2cnc(Nc3ccc(N4CCN(C)CC4)cc3)nc2n1-c1cccc(C(C)(C)O)n1` [MK-1775, 2-allyl-1-[6-(1-hydroxy-1-methylethyl)pyridin-2-yl]-6-{[4-(4-methylpiperazin-1-yl)phenyl]amino}-1,2-dihydro-3H-pyrazolo[3,4-d]pyrimidin-3-one], in assay [1] (A2058 cells, addition of 150 nM MK-8776), the “reduction of MK-1775 EC50” value was determined as 5 fold. The EC50 in assay [1] (A2058 cells, MK-1775 alone, read-out: average EC50 of growth inhibition) came to 225 nM. Moreover, the EC50 in assay [1] (A2058 cells, addition of 150 nM MK-8776, read-out: average MK-1775 EC50 with added MK-8776) stood at 45 nM. In assay [1] (MK-1775 titrated over 75 nM of the labelled drug), the “shift in the MK-1775 response curve (sham synergy experiment)” value is “did not cause a shift in the response curve”. Further, the “effect in growth assay, single agent” value in assay [2] (A2058: 125 nM MK-1775, 150 nM MK-8776, HT-29: 125 nM, 300 nM, LoVo: 40 nM, 75 nM, 48 or 72 hours) was “negligible effect”. In addition, in assay [3] (LoVo cells, 24 hour treatment, 40 nM MK-1775, 75 nM MK-8776, or both), the “cells with detectable γH2AX” value is 6%. Moreover, in assay [4], the “pCHK1 S345 by Western blot at 2 hours after the final dose” value is “transient increase” and the “pCHK1 S345 effect at 24 hours after the final dose” value is recorded as “lost”. In addition, the T/C in assay [5] is listed as 42%.

Consider `Cn1cc(-c2cnn3c(N)c(Br)c([C@@H]4CCCNC4)nc23)cn1` [MK-8776, (R)-(−)-6-Bromo-3-(1-methyl-1H-pyrazol-4-yl)-5-piperidin-3-yl-pyrazolo[1,5-a]pyrimidin-7-ylamine], for which, in assay [1], the “effect on A2058 proliferation by itself” value is on record as “do not effect A2058 proliferation”, the “maximum cell growth inhibition at the highest concentration of MK-8776” value is reported as “dose-dependent increase”, the “shift in the MK-1775 response curve (sham synergy experiment)” value is “robust potency shift” and the “shift of MK-8776 EC50 curves” value is “leftward shifts in EC50 curves”. In addition, the “shift of the MK-1775 response curve caused by added drug” value in assay [1] is “leftward shift of the MK-1775 response curve”. Moreover, the “effect in growth assay, single agent” value in assay [2] is on record as “negligible effect”. For the same compound, the “cells with detectable γH2AX” value in assay [3] was 5%. Also, in assay [4], the “pCHK1 S345 by Western blot at 2 hours after the final dose” value is given as “transient increase” and the “pCHK1 S345 effect at 24 hours after the final dose” value was “lost”. Besides, in assay [5], the T/C stood at 52%.

By EC50 is commonly meant the concentration at which the effect is half-maximal. Usually T/C stands for the ratio of treated to control.
